From ChEMBL document CHEMBL1201862, “PubChem BioAssay data set” (2004)
Activity calls are given as the source filed them.

Columns and labels:
[1] = target: T1, Nucleotide-binding oligomerization domain-containing protein 1 (Homo sapiens, UniProt Q9Y239); test: SAR analysis of NF-kappaB dependent luciferase using DAP as an inducer - Set 2. [Related pubchem assays (depositor defined):AID1566, AID1575, AID1578, AID1579, AID1849, AID1852, AID2264]; assay type: functional
T1 sequence (Q9Y239 whole entry): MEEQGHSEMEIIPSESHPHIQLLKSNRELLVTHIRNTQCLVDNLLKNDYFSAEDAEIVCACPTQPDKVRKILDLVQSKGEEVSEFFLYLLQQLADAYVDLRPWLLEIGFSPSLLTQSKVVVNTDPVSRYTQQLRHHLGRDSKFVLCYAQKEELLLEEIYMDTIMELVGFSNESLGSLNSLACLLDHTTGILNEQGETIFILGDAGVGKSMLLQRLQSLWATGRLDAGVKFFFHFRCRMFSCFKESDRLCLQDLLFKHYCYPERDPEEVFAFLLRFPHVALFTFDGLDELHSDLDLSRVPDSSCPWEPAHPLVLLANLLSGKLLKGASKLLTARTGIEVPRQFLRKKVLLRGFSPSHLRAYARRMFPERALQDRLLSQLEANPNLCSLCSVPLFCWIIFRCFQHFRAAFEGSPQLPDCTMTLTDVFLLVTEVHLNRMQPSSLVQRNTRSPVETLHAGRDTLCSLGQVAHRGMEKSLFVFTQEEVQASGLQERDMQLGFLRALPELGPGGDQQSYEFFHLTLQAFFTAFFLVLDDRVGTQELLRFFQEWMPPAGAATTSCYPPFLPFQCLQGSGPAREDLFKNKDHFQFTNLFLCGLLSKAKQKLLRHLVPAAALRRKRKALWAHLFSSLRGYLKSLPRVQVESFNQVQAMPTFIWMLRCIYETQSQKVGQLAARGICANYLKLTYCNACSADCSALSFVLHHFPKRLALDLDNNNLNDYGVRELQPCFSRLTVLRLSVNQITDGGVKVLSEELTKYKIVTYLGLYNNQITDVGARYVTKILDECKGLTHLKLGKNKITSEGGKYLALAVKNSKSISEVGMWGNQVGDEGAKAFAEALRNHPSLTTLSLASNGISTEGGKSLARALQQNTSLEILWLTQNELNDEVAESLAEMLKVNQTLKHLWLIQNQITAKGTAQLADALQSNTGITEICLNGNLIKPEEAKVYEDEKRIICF

[2] = target: T2, Interleukin-8 (Homo sapiens, UniProt P10145); test: SAR analysis of Tumor necrosis factor alpha (TNF-alpha) induced IL-8 secretion in MCF-7/NOD1 cells - Set 2. [Related pubchem assays (depositor defined):AID1575, AID2250, AID2260]; assay type: functional, cell-based
T2 sequence (P10145 whole entry): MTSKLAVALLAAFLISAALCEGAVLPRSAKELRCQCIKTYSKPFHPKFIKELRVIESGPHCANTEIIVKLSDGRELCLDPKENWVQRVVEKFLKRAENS

[3] = target: T2, Interleukin-8; test: SAR analysis of GM-Tri-DAP induced IL-8 secretion in MCF-7/NOD1 cells - Set 2. [Related pubchem assays (depositor defined):AID1575, AID1578, AID2333]; assay type: functional, cell-based
[4] = target: T3, Nucleotide-binding oligomerization domain-containing protein 2 (Homo sapiens, UniProt Q9HC29); test: inhibition of NOD2 signaling – set 2, SAR follow-up (AID 2475); assay type: functional
T3 sequence (Q9HC29 whole entry, the tested form may be a part): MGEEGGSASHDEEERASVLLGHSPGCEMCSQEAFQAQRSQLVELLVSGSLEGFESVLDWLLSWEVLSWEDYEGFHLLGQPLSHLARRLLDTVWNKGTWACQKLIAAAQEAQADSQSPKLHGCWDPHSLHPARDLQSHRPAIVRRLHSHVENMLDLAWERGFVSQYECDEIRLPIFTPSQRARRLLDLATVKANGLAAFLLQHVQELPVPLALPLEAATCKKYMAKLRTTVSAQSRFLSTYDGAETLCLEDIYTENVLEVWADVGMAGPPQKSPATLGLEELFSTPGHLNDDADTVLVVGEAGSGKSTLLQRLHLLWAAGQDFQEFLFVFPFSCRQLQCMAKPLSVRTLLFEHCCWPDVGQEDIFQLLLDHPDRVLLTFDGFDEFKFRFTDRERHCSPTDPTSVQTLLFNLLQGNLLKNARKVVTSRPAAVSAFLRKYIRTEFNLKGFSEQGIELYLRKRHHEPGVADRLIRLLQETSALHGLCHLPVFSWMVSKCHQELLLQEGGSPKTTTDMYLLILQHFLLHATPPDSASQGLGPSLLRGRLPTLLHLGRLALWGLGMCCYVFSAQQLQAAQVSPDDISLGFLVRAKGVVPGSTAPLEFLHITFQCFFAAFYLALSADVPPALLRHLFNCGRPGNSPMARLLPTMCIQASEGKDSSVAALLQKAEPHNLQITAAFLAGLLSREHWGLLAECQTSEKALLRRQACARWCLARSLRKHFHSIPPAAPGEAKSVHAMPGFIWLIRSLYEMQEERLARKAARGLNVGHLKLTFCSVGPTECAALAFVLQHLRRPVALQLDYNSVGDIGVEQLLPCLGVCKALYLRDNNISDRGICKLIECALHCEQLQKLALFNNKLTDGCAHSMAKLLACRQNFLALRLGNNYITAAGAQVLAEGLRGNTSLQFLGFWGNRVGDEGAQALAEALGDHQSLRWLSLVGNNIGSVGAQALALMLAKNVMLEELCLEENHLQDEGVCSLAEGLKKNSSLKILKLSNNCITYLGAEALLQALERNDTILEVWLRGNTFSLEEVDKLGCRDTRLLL

[5] = tested on: HEK293; test: SAR analysis of compounds that are cytotoxic to HEK293 - Set 2. [Related pubchem assays (depositor defined):AID1575, AID1578, AID1849, AID2001, AID2333, AID2334, AID2335, AID2337, AID2800]; assay type: functional, cell-based; details: Homo sapiens
[6] = target: T1, Nucleotide-binding oligomerization domain-containing protein 1; test: SAR analysis of compounds that inhibit NOD1 - Set 2. [Related pubchem assays (depositor defined):AID1566, AID1575, AID1578, AID1849, AID1852, AID2333, AID2335, AID2798]; assay type: functional
[7] = target: T1, Nucleotide-binding oligomerization domain-containing protein 1; test: SAR analysis of compounds that inhibit NOD1 - Set 3. [Related pubchem assays (depositor defined):AID1566, AID1575, AID1578, AID1849, AID1852, AID2333, AID2335, AID2466]; assay type: functional
[8] = target: Tumor necrosis factor (Homo sapiens, UniProt P01375); test: analog potency on TNFa NF-kB signaling – cell-based, set 3, SAR follow-up (AID 2801); assay type: functional
Chain of Tumor necrosis factor (P01375 whole entry): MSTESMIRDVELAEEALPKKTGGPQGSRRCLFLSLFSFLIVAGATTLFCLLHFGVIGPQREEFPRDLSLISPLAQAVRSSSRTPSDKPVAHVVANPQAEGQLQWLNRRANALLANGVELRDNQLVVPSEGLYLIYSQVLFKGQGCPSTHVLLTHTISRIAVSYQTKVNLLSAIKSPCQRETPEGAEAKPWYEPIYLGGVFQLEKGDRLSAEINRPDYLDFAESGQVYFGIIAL

[9] = tested on: HEK293; test: SAR analysis of compounds that are cytotoxic to HEK293 - Set 3. [Related pubchem assays (depositor defined):AID1575, AID1578, AID1848, AID1849, AID2001, AID2333, AID2334, AID2335, AID2337, AID2469]; assay type: functional, cell-based; details: Homo sapiens
[10] = target: T3, Nucleotide-binding oligomerization domain-containing protein 2; test: inhibition of MDP-driven NOD2 NF-kB reporter – cell-based, set 3, SAR follow-up (AID 2799); assay type: functional
[11] = Counterscreen for IDE inhibitors: Luminescence-based cell-based high throughput dose response assay to identify compounds that are cytotoxic to HEK cells. [Related pubchem assays: 434962 (Primary screen (IDE inhibitors in singlicate)), 449730 (Counterscreen (Cytotoxicity in triplicate)), 435028 (Confirmation (IDE inhibitors in triplicate)) …; assay type: functional; details: HEK293
[12] = target: T4, Insulin-degrading enzyme (Homo sapiens, UniProt P14735); test: Dose Response: Fluorescence polarization-based cell-based high throughput dose response assay for inhibitors of insulin-degrading enzyme (IDE). [Related pubchem assays: 434962 (Primary screen (IDE inhibitors in singlicate)), 449730 (Counterscreen (Cytotoxicity in triplicate)), 435028 (Confirmation (IDE inhibitors in triplicate)), 434984 (Summary …; assay type: functional
T4 sequence (P14735 whole entry): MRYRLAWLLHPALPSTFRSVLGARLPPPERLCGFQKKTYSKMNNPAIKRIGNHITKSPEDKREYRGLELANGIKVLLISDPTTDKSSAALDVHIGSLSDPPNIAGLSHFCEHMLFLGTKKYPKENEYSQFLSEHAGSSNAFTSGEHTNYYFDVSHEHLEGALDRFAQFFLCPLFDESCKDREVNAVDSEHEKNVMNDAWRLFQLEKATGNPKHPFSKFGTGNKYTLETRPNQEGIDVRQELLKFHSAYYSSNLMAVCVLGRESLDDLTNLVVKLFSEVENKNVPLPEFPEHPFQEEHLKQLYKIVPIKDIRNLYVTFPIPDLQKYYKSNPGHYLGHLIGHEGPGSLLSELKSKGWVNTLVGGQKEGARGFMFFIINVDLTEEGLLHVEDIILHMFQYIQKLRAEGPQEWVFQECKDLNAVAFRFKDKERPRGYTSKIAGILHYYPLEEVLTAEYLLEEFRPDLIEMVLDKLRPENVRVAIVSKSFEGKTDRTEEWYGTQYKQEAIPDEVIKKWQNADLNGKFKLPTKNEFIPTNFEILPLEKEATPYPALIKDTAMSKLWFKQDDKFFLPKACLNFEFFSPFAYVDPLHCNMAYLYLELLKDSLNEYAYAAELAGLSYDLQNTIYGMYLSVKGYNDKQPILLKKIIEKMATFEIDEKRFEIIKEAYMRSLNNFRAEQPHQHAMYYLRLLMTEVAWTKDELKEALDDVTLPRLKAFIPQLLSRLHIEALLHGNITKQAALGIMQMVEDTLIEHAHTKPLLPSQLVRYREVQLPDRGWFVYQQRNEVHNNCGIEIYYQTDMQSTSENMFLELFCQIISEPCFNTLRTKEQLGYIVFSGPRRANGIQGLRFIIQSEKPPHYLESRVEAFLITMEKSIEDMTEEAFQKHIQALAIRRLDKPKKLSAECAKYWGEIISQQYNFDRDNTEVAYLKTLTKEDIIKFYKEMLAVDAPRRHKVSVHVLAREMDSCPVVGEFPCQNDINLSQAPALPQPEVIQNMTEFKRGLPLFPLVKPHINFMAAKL

[13] = target: Intestinal-type alkaline phosphatase (Homo sapiens, UniProt P09923); test: activation of human intestinal alkaline phosphatase – biochemical, dose response (AID 488873); assay type: functional
Chain of Intestinal-type alkaline phosphatase (Homo sapiens, UniProt P09923) (P09923 whole entry): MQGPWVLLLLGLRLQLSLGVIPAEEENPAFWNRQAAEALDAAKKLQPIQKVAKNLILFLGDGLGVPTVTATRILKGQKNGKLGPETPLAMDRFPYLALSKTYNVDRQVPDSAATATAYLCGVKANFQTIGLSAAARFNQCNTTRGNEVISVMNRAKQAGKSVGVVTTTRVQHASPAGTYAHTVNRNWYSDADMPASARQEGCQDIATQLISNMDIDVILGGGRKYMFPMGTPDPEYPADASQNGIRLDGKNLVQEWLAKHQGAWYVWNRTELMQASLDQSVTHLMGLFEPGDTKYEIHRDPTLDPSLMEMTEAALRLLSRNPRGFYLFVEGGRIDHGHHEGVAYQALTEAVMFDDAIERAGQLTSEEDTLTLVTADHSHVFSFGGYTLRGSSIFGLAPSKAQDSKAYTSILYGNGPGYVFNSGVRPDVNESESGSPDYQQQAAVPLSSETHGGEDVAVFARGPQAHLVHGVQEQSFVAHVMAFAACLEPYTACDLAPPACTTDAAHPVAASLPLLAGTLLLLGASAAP

[14] = target: Intestinal-type alkaline phosphatase (Mus musculus, UniProt P24822); test: mouse intestinal alkaline phosphatase activators, dose response, biochemical, luminescence, uHTS hits (AID 488783); assay type: functional
Chain of Intestinal-type alkaline phosphatase (Mus musculus, UniProt P24822) (P24822 whole entry): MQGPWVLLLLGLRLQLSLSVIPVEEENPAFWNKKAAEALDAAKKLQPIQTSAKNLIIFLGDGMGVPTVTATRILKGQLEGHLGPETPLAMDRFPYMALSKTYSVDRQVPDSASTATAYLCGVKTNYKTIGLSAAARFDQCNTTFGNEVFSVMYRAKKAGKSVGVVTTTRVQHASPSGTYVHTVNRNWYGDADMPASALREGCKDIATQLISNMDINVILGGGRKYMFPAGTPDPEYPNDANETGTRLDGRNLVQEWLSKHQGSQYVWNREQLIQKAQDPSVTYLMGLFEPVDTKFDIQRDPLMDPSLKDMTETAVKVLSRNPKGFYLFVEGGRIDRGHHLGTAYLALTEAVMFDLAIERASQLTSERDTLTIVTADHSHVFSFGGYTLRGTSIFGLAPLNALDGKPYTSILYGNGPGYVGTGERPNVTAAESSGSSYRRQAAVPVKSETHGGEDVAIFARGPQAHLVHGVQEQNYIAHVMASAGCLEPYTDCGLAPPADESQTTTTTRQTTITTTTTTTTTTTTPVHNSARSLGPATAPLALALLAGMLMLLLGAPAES

[15] = target: T5, Alkaline phosphatase, tissue-nonspecific isozyme (Homo sapiens, UniProt P05186); test: activation of tissue-nonspecific alkaline phosphatase – biochemical, TNAP isozyme, mouse IAP uHTS hits, selectivity assay for mouse IAP activator project, dose response (AID 488880); assay type: functional
T5 sequence (P05186 whole entry): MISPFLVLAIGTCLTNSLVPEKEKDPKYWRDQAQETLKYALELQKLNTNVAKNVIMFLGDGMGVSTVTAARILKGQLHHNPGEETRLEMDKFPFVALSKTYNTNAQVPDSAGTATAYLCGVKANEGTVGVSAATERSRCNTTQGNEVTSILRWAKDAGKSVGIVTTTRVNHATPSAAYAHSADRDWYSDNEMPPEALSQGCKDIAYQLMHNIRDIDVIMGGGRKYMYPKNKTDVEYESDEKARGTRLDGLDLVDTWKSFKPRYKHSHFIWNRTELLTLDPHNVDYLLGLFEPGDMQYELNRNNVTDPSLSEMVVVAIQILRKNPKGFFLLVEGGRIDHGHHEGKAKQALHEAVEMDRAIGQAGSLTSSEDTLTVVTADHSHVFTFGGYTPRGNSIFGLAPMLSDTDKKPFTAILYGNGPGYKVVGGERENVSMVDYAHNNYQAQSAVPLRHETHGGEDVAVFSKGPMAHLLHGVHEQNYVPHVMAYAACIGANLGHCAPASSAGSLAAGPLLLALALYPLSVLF

[16] = target: Dual specificity tyrosine-phosphorylation-regulated kinase 1A (Rattus norvegicus, UniProt Q63470); assay type: biochemical, Homo sapiens
[17] = decrease of insulin promoter-GFP reporter – imaging, high-content screening, mouse beta cells (AID 1628); assay type: functional; details: MIN6
[18] = MIN6 cell viability loss – mouse insulinoma, cytotoxicity control, dose response (AID 2122); assay type: functional;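 further: confirmatory high-throughput counterscreen run to flag cytotoxic compounds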
[19] = target: Cytochrome P450 3A4 (Homo sapiens, UniProt P08684);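 further: CYP3A4 tested as one member of a cytochrome P450 panel screen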
Chain of Cytochrome P450 3A4 (P08684 whole entry): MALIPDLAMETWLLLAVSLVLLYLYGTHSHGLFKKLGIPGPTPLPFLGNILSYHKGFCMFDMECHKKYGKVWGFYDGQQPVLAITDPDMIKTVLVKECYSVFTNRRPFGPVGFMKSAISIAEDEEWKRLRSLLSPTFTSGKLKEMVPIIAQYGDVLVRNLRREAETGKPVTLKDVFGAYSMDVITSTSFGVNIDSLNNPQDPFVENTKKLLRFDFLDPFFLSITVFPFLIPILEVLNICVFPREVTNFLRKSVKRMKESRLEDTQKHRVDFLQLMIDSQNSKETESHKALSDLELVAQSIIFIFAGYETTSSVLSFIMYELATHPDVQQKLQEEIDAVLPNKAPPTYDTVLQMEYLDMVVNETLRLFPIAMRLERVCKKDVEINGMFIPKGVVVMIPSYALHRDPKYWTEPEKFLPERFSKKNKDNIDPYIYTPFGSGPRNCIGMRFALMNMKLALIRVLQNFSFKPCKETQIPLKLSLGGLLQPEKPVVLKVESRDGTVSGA

[20] = target: SUMO E1/E2 (Homo sapiens, UniProt P63279+Q9UBE0+Q9UBT2); test: SAR analysis of SUMOylation using HTRF in an in-Vitro dose response assay. [Related pubchem assays (depositor defined):AID2006, AID2011, AID2018, AID2069, AID2658]; assay type: functional
Chain of SUMO E1/E2 (Q9UBE0 whole entry): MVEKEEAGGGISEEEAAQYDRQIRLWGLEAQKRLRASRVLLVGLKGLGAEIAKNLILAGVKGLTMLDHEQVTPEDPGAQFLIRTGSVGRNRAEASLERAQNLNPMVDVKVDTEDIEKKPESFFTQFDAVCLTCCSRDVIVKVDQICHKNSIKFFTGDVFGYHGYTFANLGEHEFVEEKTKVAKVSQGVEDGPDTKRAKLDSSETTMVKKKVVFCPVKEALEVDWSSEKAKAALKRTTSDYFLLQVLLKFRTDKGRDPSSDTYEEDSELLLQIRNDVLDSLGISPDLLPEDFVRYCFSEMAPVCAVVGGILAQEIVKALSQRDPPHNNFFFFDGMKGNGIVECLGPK
Chain of SUMO E1/E2 (Q9UBT2 whole entry): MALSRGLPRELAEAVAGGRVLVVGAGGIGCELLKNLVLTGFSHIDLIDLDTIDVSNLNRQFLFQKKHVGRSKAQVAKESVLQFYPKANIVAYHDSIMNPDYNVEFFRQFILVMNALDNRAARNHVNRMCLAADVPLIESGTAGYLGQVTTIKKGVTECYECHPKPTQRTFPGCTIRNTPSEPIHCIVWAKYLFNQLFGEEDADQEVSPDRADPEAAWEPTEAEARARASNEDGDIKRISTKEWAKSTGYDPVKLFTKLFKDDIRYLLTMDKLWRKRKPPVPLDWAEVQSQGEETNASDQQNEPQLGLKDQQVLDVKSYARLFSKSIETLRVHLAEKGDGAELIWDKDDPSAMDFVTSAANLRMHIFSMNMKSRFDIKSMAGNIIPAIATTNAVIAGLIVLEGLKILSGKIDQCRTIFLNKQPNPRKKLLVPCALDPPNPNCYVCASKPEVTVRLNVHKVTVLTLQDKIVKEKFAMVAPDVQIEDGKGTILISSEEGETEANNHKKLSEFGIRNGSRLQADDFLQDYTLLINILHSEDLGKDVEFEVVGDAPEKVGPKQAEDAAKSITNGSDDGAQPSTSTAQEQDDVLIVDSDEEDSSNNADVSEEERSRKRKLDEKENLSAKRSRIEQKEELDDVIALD
Chain of SUMO E1/E2 (P63279 whole entry): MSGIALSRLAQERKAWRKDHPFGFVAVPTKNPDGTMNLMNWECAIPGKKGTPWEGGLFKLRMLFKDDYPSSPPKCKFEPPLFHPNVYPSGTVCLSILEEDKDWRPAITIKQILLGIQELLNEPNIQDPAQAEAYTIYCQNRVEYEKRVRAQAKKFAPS

[21] = Trypanosoma cruzi growth suppression in host cells – NIH3T3 host cells, beta-gal luminescence, confirmation (AID 2044); assay type: functional, cell-based;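 further: intracellular parasites grown in NIH/3T3 mouse fibroblasts as host cells; luminescent beta-galactosidase reporter signal from transgenic T. cruzi replicating inside host cells; inhibitors lower the luminescence signal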
[22] = NIH3T3 cell viability loss – ATP luminescence, mouse fibroblasts, counter-screen, dose response (AID 2010); assay type: functional, cell-based;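 further: cells exposed to compound for about 90 hours before reading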
[23] = target: T6, Bcl-2-related protein A1 (Mus musculus, UniProt Q07440); assay type: functional;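 further: confirmatory dose–response counterscreen on Bfl-1, used to check hits from a UBC13 polyubiquitin inhibitor campaign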
T6 sequence (Q07440 whole entry): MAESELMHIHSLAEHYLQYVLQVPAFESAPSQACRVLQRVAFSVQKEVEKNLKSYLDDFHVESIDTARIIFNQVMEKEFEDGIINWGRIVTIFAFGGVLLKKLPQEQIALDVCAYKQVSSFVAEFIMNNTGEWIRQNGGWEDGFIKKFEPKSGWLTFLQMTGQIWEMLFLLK

[24] = target: T7, Ubiquitin-conjugating enzyme E2 N (Homo sapiens, UniProt P61088); assay type: functional
T7 sequence (P61088 whole entry): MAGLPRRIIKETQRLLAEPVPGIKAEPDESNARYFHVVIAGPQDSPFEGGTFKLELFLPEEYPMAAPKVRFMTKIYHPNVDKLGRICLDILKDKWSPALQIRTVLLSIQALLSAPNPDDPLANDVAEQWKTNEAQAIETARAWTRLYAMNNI

[25] = target: T7, Ubiquitin-conjugating enzyme E2 N; assay type: functional; remark: listed apart in the source
[26] = tested on: INS1; test: INS-1E survival protection against cytokine death – cell-based, luminescence, retest, dose response (AID 449756); assay type: functional; details: Rattus norvegicus;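 further: cell death triggered by IL-1 beta plus TNF-alpha plus IFN-gamma mixture; protective hits raise ATP signal compared with cytokine alone wells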
[27] = viability loss in THP-1 monocytes – THP-1 cells, cytotoxicity control for Vif-APOBEC3G degradation inhibitor project, dose response (AID 1117359); assay type: functional; details: THP-1

CCCn1c(SCC(=O)Nc2nc3c(s2)CCCC3)nc2c1c(=O)n(C)c(=O)n2C
IC50 [1]: > 25 µM (inactive)
IC50 [2]: > 25 µM (inactive)
IC50 [3]: > 25 µM (inactive)
IC50 [4]: 1.98 µM (active)
IC50 [5]: > 20 µM (inactive)
IC50 [6]: 1.63 µM (active)
IC50 [7]: 1.36 µM (active)
IC50 [8]: 2.12 µM (active)
IC50 [9]: > 20 µM (inactive)
IC50 [10]: 1.2 µM (active)

C/C=C/Cn1c(SCc2ccc(Cl)cc2)nc2c1c(=O)[nH]c(=O)n2C
IC50 [1]: > 25 µM (inactive)
IC50 [2]: > 25 µM (inactive)
IC50 [3]: > 25 µM (inactive)
IC50 [4]: 13.7 µM (active)
IC50 [5]: > 20 µM (inactive)
IC50 [6]: 14.7 µM (active)
IC50 [7]: > 20 µM (inactive)
IC50 [8]: > 20 µM (inactive)
IC50 [9]: > 20 µM (inactive)
IC50 [10]: > 20 µM (inactive)

CSC1=NSC2=NC(=O)/C(=C/c3coc4ccc(O)cc4c3=O)C(=N)N12
IC50 [11]: > 55.7 µM (not active)
IC50 [12]: > 6.21 µM (active)
EC50 [13]: 24.9 µM (active)
EC50 [14]: 20.8 µM (active)
EC50 [15]: 30.2 µM (active)
AC50 [16]: 7.62 µM (active)

CC(C)Oc1cccc(C(=O)C2CCCN(Cc3cccn3-c3ccccn3)C2)c1 (stereo not given)
IC50 [17]: 3.3 µM (active)
IC50 [18]: 7.53 µM (active)

OCCN1CCOCCOCCN(CCO)CCN(CCO)CC1
AC50 [19]: inconclusive

Cc1ccsc1/C=N/c1ccc(C(N)=O)cc1
IC50 [20]: > 100 µM (inactive)

COc1ccccc1CNC(=O)COC(=O)c1cc(-c2cccs2)nc2ccccc12
IC50 [20]: 30.1 µM (active)

COc1cc(/C=N/N=C(N)N)ccc1OCc1ccc(Cl)cc1
IC50 [17]: 1.03 µM (active)
IC50 [18]: 0.916 µM (active)
EC50 [21]: 0.397 µM (active)
EC50 [22]: > 30 µM (not active)
IC50 [23]: > 20 µM (inactive)
IC50 [24]: 13.2 µM (active)
IC50 [25]: 12.9 µM (active)
AC50 [26]: 2.95 µM (active)
CC50 [27]: 5.63 µM (active)
